Measured values: paper PMC6651170, “New HSV-1 Anti-Viral 1′-Homocarbocyclic Nucleoside Analogs with an Optically Active Substituted Bicyclo[2.2.1]Heptane Fragment as a Glycoside Moiety” (Molecules, 2019)
Converted amounts (≈) assume the structure as drawn. Like-named read-outs stand apart in the source and are kept apart here.

Columns and labels:
HCMV = conditions: read-out: IC50 against HCMV; cited from earlier work
EpsteinBarr virus = conditions: read-out: IC50 against EpsteinBarr virus; cited from earlier work
coxsackievirus B4 = conditions: cited from earlier work
VZV/TK^- strain = conditions: read-out: EC50 against VZV/TK- strain; cited from earlier work
cytomegalovirus AD169 = conditions: read-out: EC50 against cytomegalovirus AD169 strain; cited from earlier work
[1] = tested on: cytomegalovirus DAVIS 07/1; conditions: read-out: EC50 against cytomegalovirus DAVIS 07/1 strain; cited from earlier work
herpes = conditions: cited from earlier work
Molt4/C8 = conditions: cited from earlier work
L1210/0 = conditions: cited from earlier work
[2] = tested on: Influenza virus (Flu A, strain A/Puerto Rico/8/34 (H1N1)); experiment: microbe, parasite or virus in culture; format: cell-based; conditions: read-out: IC50 Influenza Virus
[3] = tested on: herpes simplex virus type 1 (HSV-1); experiment: microbe, parasite or virus in culture; format: cell-based; conditions: for IC50: read-out: IC50 Herpes Simplex Virus Type 1
[4] = tested on: human adenovirus type 5 (AdV5); experiment: microbe, parasite or virus in culture; format: cell-based; conditions: read-out: IC50 Human Adenovirus Type 5
Yellow Fever Virus = experiment: microbe, parasite or virus in culture; format: cell-based; conditions: read-out: IC50 Yellow Fever Virus
Chikungunya Virus = experiment: microbe, parasite or virus in culture; format: cell-based; conditions: read-out: IC50 Chikungunya Virus
Enterovirus 71 = experiment: microbe, parasite or virus in culture; format: cell-based; conditions: read-out: IC50 Enterovirus 71
in vitro [5] = conditions: dog
in vitro [6] = conditions: African green monkey
in vitro [7] = experiment: in vitro
in vitro [8] = experiment: in vitro; remark: listed apart in the source
in vitro [9] = experiment: in vitro; remark: listed apart in the source
VZV = conditions: cited from earlier work
cells [10] = tested on: cells
cells [11] = tested on: cells; remark: listed apart in the source
cells [12] = tested on: cells; remark: listed apart in the source
[13] = unidentified influenza virus, H1N1, MDCK, 48 h
[14] = Human alphaherpesvirus 1, Vero, 72 h
[15] = Human mastadenovirus C, Vero, 72 h
[16] = CC50 (Herpes Simplex Virus Type 1)

Compound | IC50 [2, 13] [µM] | IC50 [3, 14] [µM] | IC50 [4, 15] [µM] | IC50 (Yellow Fever Virus; Yellow fever virus) [µM] | IC50 (Chikungunya Virus; Chikungunya virus) [µM] | IC50 (Enterovirus 71; Enterovirus A) [µM] | CC50 (in vitro [5]) [µM] | CC50 (in vitro [6]; [16]) [µM] | CC50 (in vitro [6]; CC50 (Human Adenovirus Type 5)) [µM] | CC50 (in vitro [7]) [µM] | CC50 (in vitro [8]) [µM] | CC50 (in vitro [9]) [µM] | also measured
Nc1nc2c(ncn2/C=C2/C[C@H]2CO)c(=O)[nH]1 [IV] | – | – | – | – | – | – | – | – | – | – | – | – | IC50 (HCMV): 40 to 2100 nM; IC50 (EpsteinBarr virus): 300 nM
OCC(Cc1ccccc1)Nc1ncnc2c1ncn2C1CC2C(Cl)CC1C2CO (stereo not shown) [Xc] | – | – | – | – | – | – | – | – | – | – | – | – | EC50 against coxsackievirus B4 (coxsackievirus B4): 0.6 µg/mL (≈ 1.4 µM)
Nc1nc(Cl)c2nc[nH]c2n1 [VIII (6-Cl-2-aminopurine)] | – | – | – | – | – | – | – | – | – | – | – | – | EC50 (VZV/TK^- strain): 2100 nM; EC50 (cytomegalovirus AD169): 440 nM; EC50 [1]: 390 nM
Nc1nc2c(ncn2CC2(CO)CC2CO)c(=O)[nH]1 (stereo not shown) [I] | – | – | – | – | – | – | – | – | – | – | – | – | antiherpetic activity in words (herpes): extremely potent antiherpetic activity
Nc1nc(Cl)c2nc[nH]c2n1 [V (6-Cl-2-amino-purine)] | – | – | – | – | – | – | – | – | – | – | – | – | IC50 Molt4/C8, cytostatic activity (Molt4/C8): 13.2 µg/mL (≈ 77.8 µM); IC50 L1210/0, cytostatic activity (L1210/0): 16.2 µg/mL (≈ 95.5 µM)
Nc1ncnc2c1ncn2/C=C1/C[C@H]1CO [III] | – | – | – | – | – | – | – | – | – | – | – | – | IC50 (HCMV): 1000 to 2100 nM; IC50 (EpsteinBarr virus): 200 nM
OC1C[C@H]2[C@H](Cn3cnc4c(NC5CCCC5)ncnc43)[C@@H]1C[C@@H]2Cl (stereo partly drawn) [Compound 6c, (1S,4S,5S,7R)-5-Chloro-7-((6-(cyclopentylamino)-9H-purin-9-yl)methyl)bicyclo[2.2.1]heptan-2-ol] | > 83 | 47 ± 6 | > 276 | > 100 | > 100 | 28 ± 16 | 227 ± 19 | 605 ± 42 | 824 ± 91 | > 100 | > 100 | > 100 | activity against HSV-1 in words [3]: active against herpes
OC[C@@H](Cc1ccccc1)Nc1ncnc2c1ncn2C[C@H]1[C@@H]2CC(O)[C@H]1C[C@@H]2Cl (stereo partly drawn) [Compound 6e, (1S,4S,5S,7R)-5-Chloro-7-((6-(((R)-1-hydroxy-3-phenylpropan-2-yl)amino)-9H-purin-9-yl)methyl)bicyclo[2.2.1]heptan-2-ol] | > 26 | 380 ± 46 | > 701 | > 100 | > 100 | > 100 | 188 ± 22 | > 608 | > 701 | > 100 | > 100 | > 100 | –
OC1C[C@H]2[C@H](Cn3cnc4c(NC5CCCCC5)ncnc43)[C@@H]1C[C@@H]2Cl (stereo partly drawn) [Compound 6d, (1S,4S,5S,7R)-5-Chloro-7-((6-(cyclohexylamino)-9H-purin-9-yl)methyl)bicyclo[2.2.1]heptan-2-ol] | > 27 | 21 ± 4 | 123 ± 14 | > 100 | > 100 | 28 ± 13 | 42 ± 3 | 521 ± 48 | 697 ± 75 | > 100 | > 100 | > 100 | activity against HSV-1 in words [3]: active against herpes
Nc1ncnc2c1ncn2C[C@H]1[C@@H]2CC(O)[C@H]1C[C@@H]2Cl (stereo partly drawn) [Compound 6a, (1S,4S,5S,7R)-7-((6-Amino-9H-purin-9-yl)methyl)-5-chlorobicyclo[2.2.1]heptan-2-ol] | 328 ± 29 | 102 ± 11 | > 340 | > 100 | > 100 | 71 | > 1020 | 975 ± 64 | 977 ± 103 | > 100 | > 100 | > 100 | –
O=c1[nH]c(=O)n(CC2(CO)CC2CO)cc1C=CBr (stereo not shown) [II] | – | – | – | – | – | – | – | – | – | – | – | – | anti-VZV activity, IC50 (VZV): 0.027 µg/mL
Nc1nc(O)c2ncn(COC(CO)CO)c2n1 [ganciclovir] | – | – | – | – | – | – | – | – | – | – | – | – | EC50 (cytomegalovirus AD169): 250 nM; EC50 [1]: 400 nM
(1S,4S,5S,7R)-5-Chloro-7-((6-((4-hydroxyphenethyl)amino)-9H-purin-9-yl)methyl)bicyclo[2.2.1]heptan-2-ol [Compound 6j] | – | – | – | – | – | – | – | – | – | – | – | – | IC50 [2]: > 234 µM; activity against HSV-1 in words [3]: active against herpes; IC50 [3]: 15 ± 2 µM; IC50 [4]: > 70 µM; IC50 (Yellow Fever Virus): > 100 µM; IC50 (Chikungunya Virus): > 100 µM; IC50 (Enterovirus 71): 42 ± 3.2 µM; CC50 (MDCK cells): 467 ± 28 µM; CC50 (cells [10]): > 100 µM; CC50 (cells [11]): > 100 µM; CC50 (cells [12]): > 100 µM
OC1C[C@H]2[C@H](Cn3cnc4c(Cl)ncnc43)[C@@H]1C[C@@H]2Cl (stereo partly drawn) [Compound 5, (1S,4S,5S,7R)-5-Chloro-7-((6-chloro-9H-purin-9-yl)methyl)bicyclo[2.2.1]heptan-2-ol] | 254 ± 14 | 69 ± 9 | > 958 | > 100 | > 100 | > 100 | > 958 | > 830 | > 958 | > 100 | > 100 | > 100 | activity against HSV-1 in words [3]: active against herpes
